Measured values taken from paper PMC7933930, “Development of a small molecule that corrects misfolding and increases secretion of Z α1‐antitrypsin” (EMBO Molecular Medicine, 2021).
Like-named read-outs stand apart in the source and are kept apart here.

How the values were obtained:
[1] = molecular target: OPRK1 (Homo sapiens, UniProt P41145); assay: Off‐target panel: OPRK1 (DRX); type: cell-based
Experimental: (§1) GSK716 selectivity and PK properties were profiled in order to investigate the suitability of GSK716 for progression into in vivo studies and the potential for taking it forward as a clinical candidate for testing in humans. Since GSK716 results in loss of inhibitory activity of α1‐antitrypsin, the effect of the compound was assessed on other closely related serpins. […] Furthermore, there were no off‐target effects in a panel of assays considered predictive of known safety liabilities that precluded further development of GSK716 (Table EV1).

[2] = molecular target: Cycloxygenase2 (COX2) (Homo sapiens, UniProt P35354); assay: Off‐target panel: Cycloxygenase2 (COX2); type: biochemical; details: Inhibition, read-out: Mean (PXC50)
Cycloxygenase2 (COX2), sequence (P35354 18-604): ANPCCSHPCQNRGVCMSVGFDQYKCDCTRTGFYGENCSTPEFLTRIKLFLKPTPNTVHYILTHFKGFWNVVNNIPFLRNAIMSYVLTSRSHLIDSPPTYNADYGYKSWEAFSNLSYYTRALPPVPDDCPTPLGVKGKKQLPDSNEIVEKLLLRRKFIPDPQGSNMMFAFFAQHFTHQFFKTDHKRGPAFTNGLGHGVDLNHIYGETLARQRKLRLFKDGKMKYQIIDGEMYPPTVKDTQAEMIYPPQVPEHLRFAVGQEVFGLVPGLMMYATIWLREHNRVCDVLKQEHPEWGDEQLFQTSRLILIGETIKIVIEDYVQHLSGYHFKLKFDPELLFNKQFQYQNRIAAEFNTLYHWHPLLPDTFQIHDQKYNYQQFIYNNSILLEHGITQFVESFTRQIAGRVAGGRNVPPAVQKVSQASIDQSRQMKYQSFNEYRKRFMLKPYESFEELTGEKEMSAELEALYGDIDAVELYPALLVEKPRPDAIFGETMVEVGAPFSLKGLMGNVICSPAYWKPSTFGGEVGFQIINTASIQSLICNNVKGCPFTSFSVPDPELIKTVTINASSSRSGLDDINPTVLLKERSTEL
Experimental: as §1

[3] = Total and unbound drug concentrations in blood and liver of Z α1‐antitrypsin transgenic mice; type: in vivo; details: for concentration at 123 h / concentration at 128 h / concentration at 339 h / concentration at 483 h: female, mouse, oral
Experimental: GSK716 was evaluated in a transgenic mouse model with an engineered random insertion of the human Z α1‐antitrypsin gene (Teckman et al, 2004). […] Further, older mice have larger α1‐antitrypsin inclusions that may be more difficult to reverse and any changes would be more difficult to detect than in younger animals. The PK‐PD relationship of GSK716 was explored by dosing Z α1‐antitrypsin transgenic animals with 10, 30 or 100 mg/kg GSK716 three times a day. […] Blood was also harvested for the measurement of monomeric Z α1‐antitrypsin in plasma. Total concentrations of GSK716 were determined by LC‐MS/MS, and the free drug in both tissues was determined using equilibrium dialysis to determine free fraction in the samples, subsequently used to derive unbound concentrations. […] Both free and total drug concentrations of GSK716 at the targeted site of action in the liver were equivalent to those in blood (Table 2).
(§2) Male CD‐1 mice, Han Wistar rats or beagle dogs were administered GSK716 as a suspension in 1% w/v aqueous methylcellulose via oral gavage at doses of 1 mg/kg (dog) or 10, 30 and 100 mg/kg (mouse, rat). Blood samples were taken into EDTA, diluted and mixed with acetonitrile containing internal standard (alprazolam) and centrifuged to precipitate proteins. Aliquots of the resultant supernatant were analysed by LC‐MS/MS, and concentrations of GSK716 in blood were determined. Non‐compartmental pharmacokinetic analysis (NCA) was carried out using Phoenix WinNonLin 6.3 (Certara L.P.). Free drug was measured in Z α1‐antitrypsin transgenic mice by dialysing tissue samples in rapid equilibrium dialysis cassettes.
Hemizygous female Z α1‐antitrypsin transgenic mice were 13–15 weeks of age at start of study. Drugs were administered via oral gavage three times a day at 8‐h intervals at 10 ml/Kg as a suspension in aqueous methylcellulose containing 0.5% w/v Tween 80. In life, blood sampling was performed vial tail nick. Animals were housed in licensed, approved housing in the UK with appropriate enrichment. Animals were randomly assigned to groups using manual methods. Histopathology analysis was performed blind.

[4] = Oral pharmacokinetics in dog; type: in vivo; details: beagle, whole blood, ≤ 3 mg/kg, read-out: F (oral bioavailability)
Experimental: as §2, with “Male CD‐1 mice, Han Wistar rats or beagle dogs were administered GSK716 as a suspension in 1% w/v aqueous methylcellulose via oral gavage at doses of 1 mg/kg (dog) or 10, 30 and 100 mg/kg (mouse, rat).” left out

[5] = molecular target: T1, Serotonin 5HT2C (Homo sapiens, UniProt P28335); assay: Off‐target panel: Serotonin 5HT2C (DRX); type: cell-based
T1 sequence (P28335 33-458): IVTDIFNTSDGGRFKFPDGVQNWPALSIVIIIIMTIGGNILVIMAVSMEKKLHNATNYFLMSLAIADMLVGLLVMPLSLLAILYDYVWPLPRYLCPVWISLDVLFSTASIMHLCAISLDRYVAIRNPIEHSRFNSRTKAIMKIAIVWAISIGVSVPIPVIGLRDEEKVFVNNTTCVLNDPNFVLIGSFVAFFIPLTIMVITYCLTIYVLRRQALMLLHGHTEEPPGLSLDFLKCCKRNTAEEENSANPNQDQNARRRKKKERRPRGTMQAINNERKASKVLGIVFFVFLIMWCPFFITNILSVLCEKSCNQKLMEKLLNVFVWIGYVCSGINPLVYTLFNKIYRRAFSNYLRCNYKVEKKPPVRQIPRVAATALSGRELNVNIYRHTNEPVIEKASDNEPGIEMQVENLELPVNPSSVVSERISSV
Experimental: as §1

[6] = molecular target: Adrenergic α2C (Homo sapiens, UniProt P18825); assay: Off‐target panel: Adrenergic α2C (DRX); type: cell-based
Adrenergic α2C, sequence (P18825 whole entry): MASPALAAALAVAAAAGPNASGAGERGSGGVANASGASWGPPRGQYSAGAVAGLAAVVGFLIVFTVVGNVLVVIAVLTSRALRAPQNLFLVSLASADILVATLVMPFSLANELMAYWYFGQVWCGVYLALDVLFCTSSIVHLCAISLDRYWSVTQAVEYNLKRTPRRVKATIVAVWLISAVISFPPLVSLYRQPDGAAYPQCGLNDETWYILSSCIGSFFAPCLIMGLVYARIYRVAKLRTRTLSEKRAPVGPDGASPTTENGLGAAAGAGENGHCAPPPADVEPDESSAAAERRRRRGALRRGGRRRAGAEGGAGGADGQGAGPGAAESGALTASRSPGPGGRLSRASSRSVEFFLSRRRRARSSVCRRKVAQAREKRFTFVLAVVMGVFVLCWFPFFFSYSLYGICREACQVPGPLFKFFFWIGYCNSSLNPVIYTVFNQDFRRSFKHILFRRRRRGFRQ
Experimental: as §1

[7] = Z α1-antitrypsin transgenic (hemizygous), whole blood, 100 mg/kg, 100 mg/kg three times a day, read-out: TOTAL mean concentration ± SD, Blood
[8] = Z α1-antitrypsin transgenic (hemizygous), whole blood, 100 mg/kg, 100 mg/kg three times a day, read-out: UNBOUND mean concentration ± SD, Blood
[9] = hemizygous Z α1-antitrypsin transgenic, liver, 100 mg/kg three times a day, read-out: TOTAL mean concentration ± SD, Liver

OPRK1, sequence (P41145 whole entry, species assumed): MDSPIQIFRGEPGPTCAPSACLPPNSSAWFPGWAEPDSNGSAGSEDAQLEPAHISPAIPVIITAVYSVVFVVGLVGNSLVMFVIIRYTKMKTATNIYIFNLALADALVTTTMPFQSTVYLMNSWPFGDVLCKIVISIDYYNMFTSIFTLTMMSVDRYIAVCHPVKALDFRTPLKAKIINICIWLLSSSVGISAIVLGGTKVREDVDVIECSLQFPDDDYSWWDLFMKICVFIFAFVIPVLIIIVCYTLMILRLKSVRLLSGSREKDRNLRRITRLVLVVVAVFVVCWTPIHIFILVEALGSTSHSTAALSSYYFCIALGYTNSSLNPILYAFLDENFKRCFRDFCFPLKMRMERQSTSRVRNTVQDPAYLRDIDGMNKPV

Question: With CCC[C@@H](NC(=O)c1cccc2c1CC(=O)N2)[C@@H](O)c1cccc(F)c1C [GSK716] as the compound, how does the EC50 [1] read?
Answer: 20 µM

Question: What about the IC50 [2] of the same compound?
Answer: > 100 µM

Question: And the “UNBOUND mean concentration ± SD, Liver” value ([3]; 30 mg/kg three times a day, time 128 h)?
Answer: 0.075 (± 0.04 µM

Question: And the concentration at 123 h ([3]; Z α1-antitrypsin transgenic (hemizygous), liver, 10 mg/kg, 10 mg/kg three times a day, read-out: TOTAL mean concentration ± SD, Liver)?
Answer: 3.5 µM

Question: What about the concentration at 123 h ([3]; Z α1-antitrypsin transgenic (hemizygous), liver, 10 mg/kg, 10 mg/kg three times a day, read-out: UNBOUND mean concentration ± SD, Liver) of the same compound?
Answer: 0.035 µM

Question: And the concentration at 128 h ([3]; Z α1-antitrypsin transgenic (hemizygous), liver, 10 mg/kg, 10 mg/kg three times a day, time 128 h, read-out: TOTAL mean concentration ± SD, Liver)?
Answer: 2.1 µM

Question: And the concentration at 128 h ([3]; Z α1-antitrypsin transgenic (hemizygous), liver, 10 mg/kg, 10 mg/kg three times a day, time 128 h, read-out: UNBOUND mean concentration ± SD, Liver)?
Answer: 0.028 µM

Question: What about the concentration at 123 h ([3]; Z α1-antitrypsin transgenic (hemizygous), liver, 30 mg/kg, 30 mg/kg three times a day, read-out: TOTAL mean concentration ± SD, Liver) of the same compound?
Answer: 6.7 µM

Question: And the concentration at 123 h ([3]; Z α1-antitrypsin transgenic (hemizygous), liver, 30 mg/kg, 30 mg/kg three times a day, read-out: UNBOUND mean concentration ± SD, Liver)?
Answer: 0.091 µM

Question: And the concentration at 128 h ([3]; Z α1-antitrypsin transgenic (hemizygous), liver, 30 mg/kg, 30 mg/kg three times a day, time 128 h, read-out: TOTAL mean concentration ± SD, Liver)?
Answer: 8.3 µM

Question: And the concentration at 123 h ([3]; Z α1-antitrypsin transgenic (hemizygous), liver, 100 mg/kg, 100 mg/kg three times a day, read-out: TOTAL mean concentration ± SD, Liver)?
Answer: 40.9 µM

Question: And the concentration at 123 h ([3]; Z α1-antitrypsin transgenic (hemizygous), liver, 100 mg/kg, 100 mg/kg three times a day, read-out: UNBOUND mean concentration ± SD, Liver)?
Answer: 1.05 µM

Question: And the concentration at 128 h ([3]; Z α1-antitrypsin transgenic (hemizygous), liver, 100 mg/kg, 100 mg/kg three times a day, time 128 h, read-out: TOTAL mean concentration ± SD, Liver)?
Answer: 28.4 µM

Question: And the concentration at 128 h ([3]; Z α1-antitrypsin transgenic (hemizygous), liver, 100 mg/kg, 100 mg/kg three times a day, time 128 h, read-out: UNBOUND mean concentration ± SD, Liver)?
Answer: 0.679 µM

Question: What about the concentration at 123 h ([3]; Z α1-antitrypsin transgenic (hemizygous), whole blood, 10 mg/kg, 10 mg/kg three times a day, read-out: TOTAL mean concentration ± SD, Blood) of the same compound?
Answer: 8.7 µM

Question: And the concentration at 123 h ([3]; Z α1-antitrypsin transgenic (hemizygous), whole blood, 10 mg/kg, 10 mg/kg three times a day, read-out: UNBOUND mean concentration ± SD, Blood)?
Answer: 0.018 µM

Question: And the concentration at 128 h ([3]; Z α1-antitrypsin transgenic (hemizygous), whole blood, 10 mg/kg, 10 mg/kg three times a day, time 128 h, read-out: TOTAL mean concentration ± SD, Blood)?
Answer: 7.7 µM

Question: What about the concentration at 128 h ([3]; Z α1-antitrypsin transgenic (hemizygous), whole blood, 10 mg/kg, 10 mg/kg three times a day, time 128 h, read-out: UNBOUND mean concentration ± SD, Blood) of the same compound?
Answer: 0.009 µM

Question: And the concentration at 123 h ([3]; Z α1-antitrypsin transgenic (hemizygous), whole blood, 30 mg/kg, 30 mg/kg three times a day, read-out: TOTAL mean concentration ± SD, Blood)?
Answer: 14 µM

Question: What about the concentration at 123 h ([3]; Z α1-antitrypsin transgenic (hemizygous), whole blood, 30 mg/kg, 30 mg/kg three times a day, read-out: UNBOUND mean concentration ± SD, Blood) of the same compound?
Answer: 0.061 µM

Question: What about the concentration at 128 h ([3]; Z α1-antitrypsin transgenic (hemizygous), whole blood, 30 mg/kg, 30 mg/kg three times a day, time 128 h, read-out: TOTAL mean concentration ± SD, Blood) of the same compound?
Answer: 13 µM

Question: And the concentration at 128 h ([3]; Z α1-antitrypsin transgenic (hemizygous), whole blood, 30 mg/kg, 30 mg/kg three times a day, time 128 h, read-out: UNBOUND mean concentration ± SD, Blood)?
Answer: 0.051 µM

Question: And the concentration at 123 h [3, 7]?
Answer: 33 µM

Question: What about the concentration at 123 h [3, 8] of the same compound?
Answer: 0.49 µM

Question: What about the concentration at 128 h ([3]; Z α1-antitrypsin transgenic (hemizygous), whole blood, 100 mg/kg, 100 mg/kg three times a day, time 128 h, read-out: TOTAL mean concentration ± SD, Blood) of the same compound?
Answer: 20 µM

Question: What about the concentration at 128 h ([3]; Z α1-antitrypsin transgenic (hemizygous), whole blood, 100 mg/kg, 100 mg/kg three times a day, time 128 h, read-out: UNBOUND mean concentration ± SD, Blood) of the same compound?
Answer: 0.18 µM

Question: And the concentration at 339 h [3, 7]?
Answer: 30 µM

Question: And the concentration at 339 h [3, 8]?
Answer: 0.529 µM

Question: And the concentration at 483 h ([3]; hemizygous Z α1-antitrypsin transgenic, blood, 100 mg/kg three times a day, read-out: TOTAL mean concentration ± SD, Blood)?
Answer: 22 µM

Question: And the concentration at 483 h ([3]; hemizygous Z α1-antitrypsin transgenic, blood, 100 mg/kg three times a day, read-out: UNBOUND mean concentration ± SD, Blood)?
Answer: 0.561 µM

Question: What about the concentration at 339 h [3, 9] of the same compound?
Answer: 84.6 µM

Question: What about the concentration at 483 h [3, 9] of the same compound?
Answer: 42.4 µM

Question: And the bioavailability [4]?
Answer: 71%

Question: And the EC50 [5]?
Answer: > 100 µM

Question: What about the IC50 [5] of the same compound?
Answer: 50.1 µM

Question: And the EC50 [6]?
Answer: > 100 µM
